Source: US4716162A, “Fused 5 ring heterocyclic compounds, their preparation, and their anti-arrhythmic and diuretic use” (Sankyo Company, Limited, priority 1984, dated 1987)
Values after ≈ are worked out from the molar mass of the structure shown. Where a name gives a salt, the structure may show the parent alone. Read-outs that look alike come from different tables or passages of the source.

Assays:
[1] = tested on: heart beat rate in the ventricle of mice placed in chloroform gas; assay: Anti-arrhythmic effect, Block's method (chloroform-induced, ventricular heart beat rate by electrocardiogram); type: in vivo, mice (ICR strain); details: Mus musculus, ip, read-out: ED50 % (effective = heart beat rate in the ventricle reduced to less than 400 beats/minute)
Experimental: Test procedures: (Block's method)
Onto a 2 liter desiccator were placed 150 ml of chloroform and this was stirred with a magnetic stirrer while being heating by an incandescent lamp. When the desiccator was saturated with chloroform gas, mice (ICR strain, body weight between 20 and 25 g) were placed therein for 2 minutes and then the chest was opened. Silver dipolar electrodes were contacted with the ventricles and electrocardiograms were taken for 1 minute. Within 10-20 minutes, the test compound was administered intraperitoneally in a carboxymethyl-cellulose solution as vehicle.

[2] = tested on: arrhythmias induced by ischemic cardiac dysfunction caused by ligation of the coronary arteries of a perfusing heart; assay: Anti-arrhythmic effect: protection against arrhythmias induced by ischemia (coronary artery ligation and re-perfusion) of a perfusing heart, method of Opie et al; set-up: species or system male rats of Sprague-Dawley strain; details: read-out: ED70 (concentration required for 70% suppression of the arrhythmias during ligation and after re-perfusion)
Experimental: The test was performed according to the method of L. H. Opie et al [Cardiovascular Research, 12, 212 (1978)] using male rats of Sprague-Dawley strain weighing between 230 and 330 g. The antiarrhythmic effect was estimated by the ability of the test compound administered intravascularly to protect against the arrhythmias induced by ischemic cardiac dysfunction caused by ligation of the coronary arteries of a perfusing heart.
The test compounds were dissolved in dimethyl sulfoxide, and the required amount of injectible solution was prepared by mixing this with Krebs-Henseleit solution. The degree of protecting effect is reported as the concentration (ED70) required for 70% suppression of the arrhythmias during ligation and after re-perfusion.

[3] = tested on: male mice of the DDY strain; assay: Diuretic effect: urine volume and sodium ion concentration by the filter paper method (Mineshita et al); type: in vivo; details: 100 mg/kg p.o.
Experimental: The diuretic test was performed on groups of 5 male mice of the DDY strain, each weighing between 26 and 30 g. The test solutions were prepared by dissolving the test compounds in physiological saline containing 0.3% w/v carboxymethylcellulose and were administered orally to the animals. The urine volume and sodium ion concentration were estimated by the filter paper method [Mineshita et al: Pharmacometrics, 4, 33 (1970)]. In Table 13, the increase of the urine volume and sodium ion concentration are shown as a percentage of the values of a control group to which no active compound was administered.

[4] = tested on: rats with ischemic brains; assay: Improvement of brain function: time until recovery of the righting reflex in rats with ischemic brains; type: in vivo, male rats of the Wistar strain
Experimental: A test for recovery of brain function was performed using rats with ischemic brains. The bilaterial carotid arteries of male rats of the Wistar strain were ligated under anesthesia with thiopental (50 mg/kg, intraperitoneally) and the test compounds and a 0.5% w/v carboxymethylcellulose solution (vehicle) were intraperitoneally administered at the same time. The time until recovery of the righting relex was measured to give an index of the brain function. […] The known compound, Pentoxifylline, was tested in the same way, for comparison.

[5] = rat perfusing heart, test compound administered intravascularly

SMILES	ED50 [1]	EC70 [2, 5]	other results
CC[C@]12CCC[C@@H]3[C@H]1c1c(c4cc(O)ccc4n1C(=O)C2)C[C@H]3C(=O)NNCCN1CCCC1 (relative stereo) [Compound No. 146, 7-Hydroxy-12aβ-ethyl-4β-{3-[2-(1-pyrrolidinyl)ethyl]carbazoyl}-2,3,3aβ,4α,5,12,12aβ,12bβ-octahydrobenzo[d,e]indolo[3,2,1-i,j]quinolin-11(1H)-one hemihydrate]	22.5 mg/kg		
N[C@@H]1Cc2c3n(c4ccccc24)C(=O)C[C@H]2CC[C@@H]1[C@@H]32 (relative stereo) [Compound No. 55, 3β-Amino-1,2,2aβ,3α,4,11,11aβ,11bβ-octahydrocyclopenta[d,e]indolo[3,2,1-i,j]quinolin-10-one maleate]		0.64 µg/mL	
CC[C@@]12CCC[C@H]3[C@H](N)Cc4c(n(c5ccc(O)cc45)C(=O)C1)[C@H]32 (relative stereo) [Compound No. 197, 4β-Amino-12aβ-ethyl-7-hydroxy-2,3,3aβ,4α,5,12,12aβ,12bβ-octahydrobenzo[d,e]indolo[3,2,1-i,j]quinolin-11(1H)-one hemihydrate]	22.5 mg/kg		
C[C@@]12C3=C[C@@H](N)[C@@H]4CC[C@H](CC(=O)N1c1ccccc13)[C@@H]42 (relative stereo) [Compound No. 26, 3β-Amino-1,2,2aβ,3α,11,11aβ,11bβ,11cα-octahydro-11cα-methylcyclopenta[d,e]indolo[3,2,1-i,j]quinolin-10-one hydrochloride]		0.9 µg/mL	
N[C@@H]1Cc2c3n(c4ccccc24)C(=O)C[C@H]2CCC[C@@H]1[C@@H]32 (relative stereo) [Compound No. 106, 4β-amino-2,3,3aβ,4α,5,12,12aβ,12bβ-octahydrobenzo[d,e]indolo[3,2,1-i,j]quinolin-11(1H)-one maleate]		1 µg/mL	
N[C@@H]1Cc2c3n(c4ccccc24)C(=O)C[C@H]2CCCC[C@@H]1[C@@H]32 (relative stereo) [Compound No. 228]		0.9 µg/mL (≈ 3.06 µM)	
CCN(CC)CC(=O)Nc1c(C)cccc1C [Lidocaine, reference compound]		5 µg/mL (≈ 21.3 µM)	
CC[C@@]12CC[C@H]3[C@H](N)Cc4c(n(c5ccccc45)C(=O)C1)[C@H]32 (relative stereo) [Compound No. 59]		0.23 µg/mL (≈ 0.781 µM)	
CC(C)N(CCC(C(N)=O)(c1ccccc1)c1ccccn1)C(C)C (centres unmarked) [Disopyramide, reference compound]		10 µg/mL (≈ 29.5 µM)	
N[C@@H]1Cc2c3n(c4ccc(O)cc24)C(=O)C[C@@]2(c4ccccc4)CCC[C@@H]1[C@@H]32 (relative stereo) [Compound No. 162]	12 mg/kg		
COC(=O)[C@@H]1Cc2c3n(c4ccccc24)C(=O)C[C@H]2CC[C@@H]1[C@@H]32 (relative stereo) [Compound No. 35, Methyl 1,2,2aβ,3α,4,11,11aβ,11bβ-octahydro-10-oxo-10H-cyclopenta[d,e]indolo[3,2,1-i,j]quinoline-3β-carboxylate]			EC70 ([2]; Rattus norvegicus): 4.2 µg/mL (≈ 13.6 µM)
CN(C)[C@@H]1Cc2c3n(c4ccccc24)C(=O)C[C@H]2CC[C@@H]1[C@@H]32 (relative stereo) [Compound No. 65, 1,2,2aβ,3α,4,11,11aβ,11bβ-Octahydro-3β-dimethylaminocyclopenta[d,e]indolo[3,2,1-i,j]quinolin-10-one maleate]		0.3 µg/mL	
O=C(O)[C@@H]1C=C2c3cc(Br)ccc3N3C(=O)C[C@H]4CC[C@@H]1[C@H]4[C@H]23 (relative stereo) [Compound No. 18]			Urine Volume (increase as a percentage of the values of a control group) [3]: 86%; δNa^+ (increase of sodium ion concentration as a percentage of the values of a control group) [3]: 168%; Ratio to Control (time until recovery of the righting reflex) ([4]; 10 mg/kg i.p.): 0.84; Ratio to Control (time until recovery of the righting reflex) ([4]; 30 mg/kg i.p.): 0.68
O=C(O)[C@@H]1C=C2c3ccccc3N3C(=O)C[C@H]4CC[C@@H]1[C@H]4[C@H]23 (relative stereo) [Compound No. 14, 1,2,2aβ,3α,11,11aβ,11bβ,11cα-Octahydro-10-oxo-10H-cyclopenta[d,e]indolo[3,2,1-i,j]quinoline-3α-carboxylic acid]			Urine Volume (increase as a percentage of the values of a control group) [3]: 231%; δNa^+ (increase of sodium ion concentration as a percentage of the values of a control group) [3]: 245%
CC(=O)CCCCn1c(=O)c2c(ncn2C)n(C)c1=O [Pentoxifylline, reference compound]			Ratio to Control (time until recovery of the righting reflex) ([4]; 30 mg/kg i.p.): 0.82
CCC[C@@]12CCC[C@H]3[C@H](N)Cc4c(n(c5ccccc45)C(=O)C1)[C@H]32 (relative stereo) [Compound No. 96]	3.6 mg/kg		
CC[C@@]12CCC[C@H]3[C@H](N)Cc4c(n(c5ccccc45)C(=O)C1)[C@H]32 (relative stereo) [Compound No. 110]	14 mg/kg	0.16 µg/mL (≈ 0.519 µM)	
CCC[C@@]12CCC[C@H]3[C@H](N)Cc4c(n(c5ccc(O)cc45)C(=O)C1)[C@H]32 (relative stereo) [Compound No. 198]	4.2 mg/kg		
